Results: patent US9737545B2 (MERCK SHARP & DOHME CORP., priority 2013, dated 2017)

Molecular target: T1, wildtype HIV-1 protease (Human immunodeficiency virus type 1 group M subtype B, UniProt P04585)
T1 construct: preincubated with the HIV-1 protease (wild type) enzyme in assay buffer; made in house; host or cells: Escherichia coli
Experiment: Assay for Inhibition of Microbial Expressed HIV Protease (Pepcleav)
Assay type: biochemical
Experimental: Assay for Inhibition of Microbial Expressed HIV Protease (“Pepcleav”)
Studies of the inhibition of the wildtype HIV-1 protease (which was expressed in Escherichia coli) were carried out with a peptide substrate [Val-Ser-Gln-Asn-(βnaphthyl)Ala-Pro-Ile-Val (SEQ ID NO: 1)]. The inhibitor was first preincubated with the HIV-1 protease (wild type) enzyme in assay buffer (50 mM sodium acetate, pH 5.5, 100 mM NaCl, and 0.1% BSA) for 30 minutes at room temperature. Substrate was added to 400 micromolar in a total volume of 20 microliters containing 20 picomolar HIV-1 protease (final) and the reaction was incubated for 1 hour at 30° C. The reaction was quenched with the addition of formic acid and indinavir to 0.012% and 150 nM final concentrations, respectively. The product formation was determined after separation of product and substrate on a Zorbax Eclipse XDB-C18 column connected to an API 4000 mass spectrometer (Applied Biosystems) with multiple reaction monitoring (transitions were 644.5/428.9 and 615.4/422.2 (M1/M3) for product and indinavir respectively). The extent of inhibition of the reaction was determined from the peak area of the products. Analysis of the products, independently synthesized, provided quantitation standards and confirmation of the product composition.

COC(=O)N[C@H](C(=O)Nc1ccccc1CC[C@@H]1CN[C@H](c2cc3cc(C)ccc3[nH]2)CO1)C(c1ccccc1)c1ccccc1 [Example 54, Nα-(methoxycarbonyl)-N-(2-{2-[(2R,5R)-5-(5-methyl-1H-indol-2-yl)morpholin-2-yl]ethyl}phenyl)-β-phenyl-L-phenylalaninamide]
IC50: 143 nM

COC(=O)N[C@H](C(=O)Nc1ccccc1CC[C@@H]1CN[C@H](c2cc3cc(C(F)(F)F)ccc3[nH]2)CO1)C(c1ccccc1)c1ccccc1 [Example 55]
IC50: 152 nM

COC(=O)N[C@H](C(=O)Nc1ccccc1CC[C@@H]1CN[C@H](c2cc3cc(OC)ccc3[nH]2)CO1)C(c1ccccc1)c1ccccc1 [Example 56, Nα-(methoxycarbonyl)-N-(2-{2-[(2R,5R)-5-(5-methoxy-1H-indol-2-yl)morpholin-2-yl]ethyl}phenyl)-β-phenyl-L-phenylalaninamide]
IC50: 98.3 nM

COC(=O)N[C@H](C(=O)Nc1ccccc1CC[C@@H]1CN[C@H](c2cc3cc(Cl)ccc3[nH]2)CO1)C(c1ccccc1)c1ccccc1 [Example 57, N-(2-{2-[(2R,5R)-5-(5-chloro-1H-indol-2-yl)morpholin-2-yl]ethyl}phenyl)-Nα-(methoxycarbonyl)-β-phenyl-L-phenylalaninamide]
IC50: 70.2 nM

COC(=O)N[C@H](C(=O)Nc1ccccc1CC[C@@H]1CN[C@H](c2cc3ccc(Cl)cc3[nH]2)CO1)C(c1ccccc1)c1ccccc1 [Example 58, N-(2-{2-[(2R,5R)-5-(6-chloro-1H-indol-2-yl)morpholin-2-yl]ethyl}phenyl)-Nα-(methoxycarbonyl)-β-phenyl-L-phenylalaninamide]
IC50: 76.2 nM

COC(=O)N[C@H](C(=O)Nc1ccccc1CC[C@@H]1CN[C@H](c2cc3cccc(Cl)c3[nH]2)CO1)C(c1ccccc1)c1ccccc1 [Example 59, N-(2-{2-[(2R,5R)-5-(7-chloro-1H-indol-2-yl)morpholin-2-yl]ethyl}phenyl)-Nα-(methoxycarbonyl)-β-phenyl-L-phenylalaninamide]
IC50: 96.4 nM

COC(=O)N[C@H](C(=O)Nc1ccccc1CC[C@@H]1CN[C@H](c2cc3c(Cl)cccc3[nH]2)CO1)C(c1ccccc1)c1ccccc1 [Example 60, N-(2-{2-[(2R,5R)-5-(4-chloro-1H-indol-2-yl)morpholin-2-yl]ethyl}phenyl)-Nα-(methoxycarbonyl)-β-phenyl-L-phenylalaninamide]
IC50: 88.6 nM

COC(=O)N[C@H](C(=O)Nc1ccccc1CC[C@@H]1CN[C@H](c2cc3cnccc3[nH]2)CO1)C(c1ccccc1)c1ccccc1 [Example 61, Nα-(methoxycarbonyl)-β-phenyl-N-(2-{2-[(2R,5R)-5-(1H-pyrrolo[3,2-c]pyridin-2-yl)morpholin-2-yl]ethyl}phenyl)-L-phenylalaninamide]
IC50: 550 nM

COC(=O)N[C@H](C(=O)Nc1ccccc1CC[C@@H]1CN[C@H](c2cc3cccnc3[nH]2)CO1)C(c1ccccc1)c1ccccc1 [Example 62, Nα-(methoxycarbonyl)-β-phenyl-N-(2-{2-[(2R,5R)-5-(1H-pyrrolo[2,3-b]pyridin-2-yl)morpholin-2-yl]ethyl}phenyl)-L-phenylalaninamide]
IC50: 156 nM

O=C(C[C@H](c1ccccc1)c1ccc(F)cc1)Nc1cncc(F)c1CC[C@@H]1CN[C@H](c2nc3cc(F)c(F)cc3[nH]2)CO1 [Example 70, (3R)—N-(4-{2-[(2R,5R)-5-(5,6-difluoro-1H-benzimidazol-2-yl)morpholin-2-yl]ethyl}-5-fluoropyridin-3-yl)-3-(4-fluorophenyl)-3-phenylpropanamide]
IC50: 0.01 nM

O=C(C[C@H](c1ccccc1)c1ccc(F)cc1)Nc1cncc(F)c1CC[C@@H]1CN[C@H](c2nc3ccccc3[nH]2)CO1 [Example 71, (3R)—N-(4-{2-[(2R,5R)-5-(1H-benzimidazol-2-yl)morpholin-2-yl]ethyl}-5-fluoropyridin-3-yl)-3-(4-fluorophenyl)-3-phenylpropanamide]
IC50: 0.01 nM

COC(=O)N[C@H](C(=O)Nc1cncc(F)c1CC[C@@H]1CN[C@H](c2nc3ccccc3[nH]2)CO1)C(c1ccc(F)cc1)c1ccc(F)cc1 [Example 72, N-(4-{2-[(2R,5R)-5-(1H-benzimidazol-2-yl)morpholin-2-yl]ethyl}-5-fluoropyridin-3-yl)-4-fluoro-β-(4-fluorophenyl)-Nα-(methoxycarbonyl)-L-phenylalaninamide]
IC50: 0.01 nM

O=C(C[C@@H](c1ccc(F)cc1)c1ccncc1F)Nc1cccc(F)c1CC[C@@H]1CN[C@H](c2nc3ccccc3[nH]2)CO1 [Example 73, (3S)—N-(2-{2-[(2R,5R)-5-(1H-benzimidazol-2-yl)morpholin-2-yl]ethyl}-3-fluorophenyl)-3-(4-fluorophenyl)-3-(3-fluoropyridin-4-yl)propanamide]
IC50: 0.01 nM

N[C@H](C(=O)Nc1cncc(F)c1CC[C@@H]1CN[C@H](c2nc3cc(F)c(F)cc3[nH]2)CO1)C(c1ccc(F)cc1)c1ccc(F)cc1 [Example 75, N-(4-{2-[(2R,5R)-5-(5,6-difluoro-1H-benzimidazol-2-yl)morpholin-2-yl]ethyl}-5-fluoropyridin-3-yl)-4-fluoro-β-(4-fluorophenyl)-L-phenylalaninamide]
IC50: 0.01 nM

COC(=O)N[C@H](C(=O)Nc1cncc(F)c1CC[C@@H]1CN[C@H](c2nc3cc(F)c(F)cc3[nH]2)CO1)C(c1ccc(F)cc1)c1ccc(F)cc1 [Example 76, N-(4-{2-[(2R,5R)-5-(5,6-difluoro-1H-benzimidazol-2-yl)morpholin-2-yl]ethyl}-5-fluoropyridin-3-yl)-4-fluoro-β-(4-fluorophenyl)-Nα-(methoxycarbonyl)-L-phenylalaninamide]
IC50: 0.02 nM

COC(=O)N[C@H](C(=O)Nc1ccccc1CC[C@@H]1CN[C@H](c2nnn[nH]2)CO1)C(c1ccccc1)c1ccccc1 [Example 77, Nα-(methoxycarbonyl)-β-phenyl-N-(2-{2-[(2R,5R)-5-(1H-tetrazol-5-yl)morpholin-2-yl]ethyl}phenyl)-L-phenylalaninamide]
IC50: 3.5 nM

COC(=O)N[C@H](C(=O)Nc1ccccc1CC[C@@H]1CN[C@H](c2nnc(Cc3ccccc3)o2)CO1)C(c1ccccc1)c1ccccc1 [Example 78]
IC50: 62 nM

COC(=O)N[C@H](C(=O)Nc1ccccc1CC[C@@H]1CN[C@H](c2nnc(-c3ccc(F)cc3)o2)CO1)C(c1ccccc1)c1ccccc1 [Example 79]
IC50: 59 nM

COC(=O)N[C@H](C(=O)Nc1ccccc1CC[C@@H]1CN[C@H](c2nnc(C)o2)CO1)C(c1ccccc1)c1ccccc1 [Example 80]
IC50: 220 nM

COC(=O)N[C@H](C(=O)Nc1ccccc1CC[C@@H]1CN[C@H](c2nnc(Cc3ccccc3)[nH]2)CO1)C(c1ccccc1)c1ccccc1 [Example 81]
IC50: 2.8 nM

COC(=O)N[C@H](C(=O)Nc1ccccc1CC[C@@H]1CN[C@H](c2nnco2)CO1)C(c1ccccc1)c1ccccc1 [Example 82]
IC50: 280 nM

COC(=O)N[C@H](C(=O)Nc1ccccc1CC[C@@H]1CN[C@H](c2csc(C)n2)CO1)C(c1ccccc1)c1ccccc1 [Example 83]
IC50: 89 nM

COC(=O)N[C@H](C(=O)Nc1ccccc1CC[C@@H]1CN[C@H](c2csc(Cc3ccccc3)n2)CO1)C(c1ccccc1)c1ccccc1 [Example 84]
IC50: 150 nM

COC(=O)N[C@H](C(=O)Nc1ccccc1CC[C@@H]1CN[C@H](c2nc3cc(Cl)c(Cl)cc3[nH]2)CO1)C(c1ccccc1)c1ccccc1 [Example 85]
IC50: 0.4 nM

COC(=O)N[C@H](C(=O)Nc1ccccc1CC[C@@H]1CN[C@H](c2ncc[nH]2)CO1)C(c1ccccc1)c1ccccc1 [Example 86]
IC50: 1.8 nM
